Experimental data taken from ChEMBL document CHEMBL1201862, “PubChem BioAssay data set” (2004).
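Following 48 hours of exposure in 96-well plates, responses at five concentrations were used to interpolate endpoints linearly. GI50 is the concentration that inhibits growth by half.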 Active and inactive are the calls of the source. Cut-off read from the data, not from the text of the source: active = GI50 up to about 1.1 µM and inactive = higher.

Assays:
Assay in all cases: DTP human tumour cell line panel, 48 h
786-0 = test system: 786-0
SK-MEL-2 = test system: SK-MEL-2
SNB-75 = test system: SNB-75
U-251 = test system: U-251
SF-539 = test system: SF-539
HCC 2998 = test system: HCC 2998
OVCAR-5 = test system: OVCAR-5
OVCAR-3 = test system: OVCAR-3
HCT-116 = test system: HCT-116
RXF 393 = test system: RXF 393
SW-620 = test system: SW-620
NCI-H460 = test system: NCI-H460
RPMI-8226 = test system: RPMI-8226
CAKI-1 = test system: CAKI-1
IGROV-1 = test system: IGROV-1
A498 = test system: A498
HT-29 = test system: HT-29
SN12C = test system: SN12C
Malme-3M = test system: Malme-3M
SF-268 = test system: SF-268
COLO 205 = test system: COLO 205
HL-60 = test system: HL-60
DMS-273 = test system: DMS-273
M19-MEL = test system: M19-MEL
SF-295 = test system: SF-295
KM12 = test system: KM12
KM-20L2 = test system: KM-20L2
MOLT-4 = test system: MOLT-4
SR = test system: SR
EKVX = test system: EKVX
TK-10 = test system: TK-10
A549 = test system: A549
DMS-114 = test system: DMS-114
SNB-78 = test system: SNB-78
OVCAR-8 = test system: OVCAR-8
DLD-1 = test system: DLD-1
SK-MEL-5 = test system: SK-MEL-5
LOX IMVI = test system: LOX IMVI
M14 = test system: M14
K562 = test system: K562
NCI-H23 = test system: NCI-H23
NCI-H226 = test system: NCI-H226
HCT-15 = test system: HCT-15
SNB-19 = test system: SNB-19
UACC-257 = test system: UACC-257
SK-MEL-28 = test system: SK-MEL-28
HOP-62 = test system: HOP-62
UO-31 = test system: UO-31
SK-OV-3 = test system: SK-OV-3
ACHN = test system: ACHN
OVCAR-4 = test system: OVCAR-4
NCI-H522 = test system: NCI-H522
LXFL 529 = test system: LXFL 529
UACC-62 = test system: UACC-62
HOP-92 = test system: HOP-92

Measured: GI50

N#Cc1c(CC(=O)O)cc(=O)n2c1[nH]c1ccccc12
> 100 µM: HCT-15
inactive: 786-0 > 100 µM | SK-MEL-2 > 100 µM | SNB-75 > 100 µM | U-251 > 100 µM | SF-539 > 100 µM | HCC 2998 > 100 µM | OVCAR-5 > 100 µM | OVCAR-3 > 100 µM | HCT-116 > 100 µM | RXF 393 > 100 µM | SW-620 > 100 µM | NCI-H460 > 100 µM | RPMI-8226 > 100 µM | CAKI-1 > 100 µM | IGROV-1 > 100 µM | A498 > 100 µM | HT-29 > 100 µM | SN12C > 100 µM | Malme-3M > 100 µM | SF-268 > 100 µM | COLO 205 > 100 µM | HL-60 > 100 µM | DMS-273 > 100 µM | M19-MEL > 100 µM | SF-295 > 100 µM | KM12 > 100 µM | KM-20L2 > 100 µM | MOLT-4 > 100 µM | SR > 100 µM | EKVX > 100 µM | TK-10 > 100 µM | A549 > 100 µM | DMS-114 > 100 µM | SNB-78 > 100 µM | OVCAR-8 > 100 µM | DLD-1 > 100 µM | SK-MEL-5 > 100 µM | LOX IMVI > 100 µM | M14 > 100 µM | K562 > 100 µM | NCI-H23 > 100 µM | NCI-H226 > 100 µM | SNB-19 > 100 µM | UACC-257 > 100 µM | SK-MEL-28 > 100 µM | HOP-62 > 100 µM | UO-31 > 100 µM | SK-OV-3 > 100 µM | ACHN > 100 µM | OVCAR-4 > 100 µM

O=C1C=CC=C/C1=C1/SC(c2ccccc2)=C(O)N1c1ccccc1
inactive: 786-0 > 100 µM | SK-MEL-2 > 100 µM | SNB-75 > 100 µM | U-251 > 100 µM | SF-539 > 100 µM | HCC 2998 > 100 µM | OVCAR-5 > 100 µM | OVCAR-3 > 100 µM | HCT-116 > 100 µM | RXF 393 > 100 µM | NCI-H522 > 100 µM | SW-620 > 100 µM | CAKI-1 > 100 µM | IGROV-1 > 100 µM | HT-29 > 100 µM | SN12C > 100 µM | Malme-3M > 100 µM | SF-268 > 100 µM | COLO 205 > 100 µM | DMS-273 > 100 µM | M19-MEL > 100 µM | SF-295 > 100 µM | KM12 > 100 µM | KM-20L2 > 100 µM | EKVX > 100 µM | TK-10 > 100 µM | A549 > 100 µM | DMS-114 > 100 µM | SNB-78 > 100 µM | OVCAR-8 > 100 µM | SK-MEL-5 > 100 µM | LXFL 529 > 100 µM | UACC-62 > 100 µM | NCI-H23 > 100 µM | NCI-H226 > 100 µM | SNB-19 > 100 µM | UACC-257 > 100 µM | SK-MEL-28 > 100 µM | UO-31 > 100 µM | SK-OV-3 > 100 µM | ACHN > 100 µM | HOP-92 > 100 µM | OVCAR-4 > 100 µM
> 100 µM: HCT-15
